Laboratory results as given in patent US20190367449A1, “PHENYLCREATINE, ITS USE AND METHOD FOR ITS PRODUCTION” (priority 2017, published 2019).

Tests used:
[1] = tested on: white mongrel mice; test: Endurance of mice in the treadmill test (running to complete exhaustion); assay type: in vivo; details: for Running time of mice (M ± m): treadmill 29-31 m/min, 1 hour after administration
Method: In order to find out whether phenylcreatine is a functional analogue of creatine, and also how much its effect is related to the strength of creatine, the functional state of the mice was assessed, namely, the body weight was measured, activity and endurance in the test on white mongrel mice were assessed-males weighing 18-22 g. Two experimental groups of mice and one control group (10 mice in each group) were selected. Initially, the animals were of equal mass. The animals were kept in accordance with the rules adopted by the European Convention for the Protection of Vertebrates used for experimental and other purposes (European Convention for the Protection of Vertebrates used for Experiments or for Other Scientific Purposes (EST No. 123), Strasbourg, 18 March 1986, M., 1990, 12 pp.). Animals were kept in standard vivarium conditions. The animals were killed by decapitation in accordance with the “Rules for carrying out work using experimental animals”, approved by order of the Ministry of Health of the USSR No. 742 of 13 Nov. 1984 (Bolshakov […] Didactic and ethical aspects of research on biomodels and on laboratory animals//Qualitative clinical practice. 2002. No. 1. P.58-61). Within 20 days, the animals received an aqueous solution of creatine in a dosage of 0.3 mg per gram of weight. […] Upon administration, the drug was dissolved in 0.3 ml of water and injected into mice through a probe into the stomach daily in the morning, on an empty stomach. The animals of the control group received a similar volume of water. Phenylcreatine was also administered for 20 days in an amount of 50 mg per kg of body weight. Endurance of mice under physical exertion was assessed according to a standard procedure (Emirova L R Potention by […] of the action of medicinal substances that increase the endurance of athletes: dis . . . medical doctor: 14.00.25. M., 2004. 125 pp.) for the duration of running in the treadmill test. The animals of each group were subjected to daily training loads in a high load power mode, which was modelled by running on a treadmill at a speed of 29-31 m/min. The duration of daily mice training was 5 minutes. Endurance of mice was tested on the 1st, 5th, 10th, 15th, 20th and 25th days of training against the background of administration of drugs (or distilled water in the control). Endurance testing was conducted under the same conditions as training. Endurance was tested 1 hour after drug administration (Petrenko E R Comparative pharmacological study of adaptogenic properties of ginseng preparations: dis . . . candidate of biological sciences: 14.00.25., St. Petersburg, 1998. 126 pp.) until fatigue, the criterion of which was the lack of reaction of mice to stimulation of the legs and tail by electric current (Stratienko E N Influence of phenylethyl substituted derivatives of 3-oxypridine on the physical working capacity of mice under conditions of hypobaric hypoxia: dis . . . . Medical Candidate of Sciences Bryansk, 1996. DSP. 201 pp.). Running time was recorded in seconds. The study was carried out at rest, an hour after the administration of creatine or phenylcreatine, and immediately after the end of the run in the treadmill. Statistical processing of data was carried out in the program Statistica, for all data groups, using the Student's criterion. The following results were obtained concerning the effect of the intake of creatine and phenylcreatine on the endurance of mice. Dosages of 10 mg of phenylcreatine per animal and 300 mg of creatine per animal were used.

[2] = tested on: healthy men, having a sedentary lifestyle; details: loading protocol followed by 11-week maintenance; for 4-12 weeks; cited from earlier work
[3] = tested on: craniocerebral trauma in rats and mice; details: cited from earlier work
[4] = tested on: adrenal arrhythmia (extrasystole) in rats; test: Model of adrenal arrhythmia (extrasystole) in rats; assay type: in vivo
Text: One of the most important factors of arrhythmogenesis and the appearance of extrasystoles is the activation of the sympathoadrenal system. This circumstance determined the necessity of investigating phenylcreatine, proposed by the author of the present invention, on the model of adrenal arrhythmia (extrasystole) in rats (Kushakovsky M S, Heart arrhythmias: a guide for physicians, St. Petersburg, Hippocrates 1992).
In a control series of experiments, in all animals, 12 seconds after injection of epinephrine hydrochloride at a dose of […], polytopic ventricular extrasystole occurred in all animals. The number of ventricular extrasystoles before transition to tachycardia averaged 32±6. The duration of such arrhythmias was 80±21 seconds. In 50% of cases, it passed into the ventricular tachycardia. The duration of tachycardia was, on average, 86±12 seconds.
With the introduction of phenylcreatine, proposed by the present inventor in an amount of 20 mg per animal, half an hour before adrenaline hydrochloride, the number of ventricular extrasystoles was 12±4. The duration of the arrhythmia was 60±14 seconds.

[5] = tested on: supraventricular extrasystoles; test: Holter monitoring of supraventricular extrasystoles in a person taking phenylcreatine; assay type: in vivo, human; details: 2 mg per 1 kg per day for 14 days
Method: Additionally, the following study was carried out. Professional […] (15 years of experience in power triathlon). Supraventricular extrasystoles with a frequency of 4 times in 24 hours were observed according to holter monitoring. Extrasystoles were very poorly tolerated, there were complaints of discomfort and a decrease in the quality of life (neurosis-like condition). They took phenylcreatine in an amount of 2 mg per 1 kg per day, for 14 days.

[6] = Negative effects in all the studies conducted; assay type: in vivo
Text: It should also be noted that, with all the studies conducted, the negative effects of phenylcreatine according to the invention were not detected, which indicates its safety.

[7] = tested on: white mongrel mice; test: Endurance of mice in the treadmill test (running to complete exhaustion); assay type: in vivo
[8] = 15th day of the study, control 1.1 times
[9] = 20th day of the study, control 1.4 times
[10] = 25th day of research, control 1.7 times
[11] = 1 d, 10 mg phenylcreatine or 300 mg creatine per animal

Negative effects [6]	SMILES	Increase of running time to total fatigue [1, 8]	Increase of running time to total fatigue [1, 9]	Increase of running time to total fatigue [1, 10]	Running time of mice (M ± m) [1, 11]	Running time of mice (M ± m) ([1]; 5 d)	Running time of mice (M ± m) ([1]; 10 d)	Running time of mice (M ± m) ([1]; 15 d)	Running time of mice (M ± m) ([1]; 20 d)	Running time of mice (M ± m) ([1]; 25 d)	Reduction of the glucose response in glucose tolerance test [2]	Subsequent injuries ([3]; dietary consumption of 1% creatine for four weeks)	Reduction of the severity of craniocerebral trauma ([3]; injections of creatine 3 g/kg for up to five days before trauma)	Speed of increase of the effect relative to the group receiving creatine ([1]; mice treadmill)	Number of ventricular extrasystoles ([4]; 20 mg per animal half an hour before adrenaline hydrochloride, control 32±6)	Duration of the arrhythmia ([4]; 20 mg per animal half an hour before adrenaline hydrochloride, control 80±21)	Transition to tachycardia ([4]; 20 mg per animal, control 50% of cases)	Holter monitoring within 3 months after the course [5]	Extrasystoles after the course ([5]; before: 4 times in 24 hours)	Effect on endurance in the absence of sleep [7]
	CN(CC(=O)O)C(=N)N [creatine, 2-(methylguanine)-ethane acid]	2.8 times	4.5 times	5.6 times	626.00 ± 32.25 s	772.60 ± 33.07 s	775.80 ± 37.01 s	1811.30 ± 85.82 s	2794.70 ± 103.22 s	3697.5 ± 1373 s	11-22%	halved	3-36%							
not detected	N=C(N)N(CC(=O)O)Cc1ccccc1 [phenylcreatine, N-benzyl-N-carbamimidoylglycine]	6.4 times	6.9 times	6.7 times	588.23 ± 25 s	747.23 ± 17.06 s	1874.12 ± 114.43 s	3756.77 ± 97.02 s	4076.45 ± 276.57 s	3981.4 ± 202.8 s				2 times	12±4	60 ± 14 s	no transition to tachycardia	does not fix supraventricular extrasystoles	extrasystoles completely disappeared	persisted even in the absence of sleep
